We go through eleven compounds from US10045974B2, “2-amino-6-(difluoromethyl)-5,5-difluoro-6-phenyl-3,4,5,6-tetrahydropyridines as BACE1 inhibitors” (H. Lundbeck A/S, priority 2014, dated 2018).

In general, inhibition refers to the change of the read-out against control, counted positive when it falls.

Molecules are shown by their SMILES.

Sequence of BACE1 (P56817 46-501): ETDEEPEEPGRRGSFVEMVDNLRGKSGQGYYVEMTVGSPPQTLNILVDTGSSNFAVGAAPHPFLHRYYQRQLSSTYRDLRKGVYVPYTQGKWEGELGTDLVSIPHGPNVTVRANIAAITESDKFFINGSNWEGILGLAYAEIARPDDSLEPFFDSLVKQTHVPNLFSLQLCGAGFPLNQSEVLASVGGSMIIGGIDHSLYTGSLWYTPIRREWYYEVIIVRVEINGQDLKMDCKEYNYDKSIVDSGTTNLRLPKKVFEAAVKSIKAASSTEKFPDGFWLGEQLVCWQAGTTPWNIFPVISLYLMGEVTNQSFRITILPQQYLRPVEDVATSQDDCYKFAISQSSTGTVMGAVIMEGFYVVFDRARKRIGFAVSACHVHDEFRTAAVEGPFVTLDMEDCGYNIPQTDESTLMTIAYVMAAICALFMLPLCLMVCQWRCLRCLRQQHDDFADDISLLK

This test addresses BACE1 (Homo sapiens (Human), UniProt P56817). In words: BACE1 efficacy assay (FRET-based, commercial BACE1 kit). Format: biochemical. The conditions noted are these: test compound 10 μM. The protocol:
The efficacy assay was performed as a FRET-based assay using a commercially available BACE1 kit (Life Technologies, P2985). 2 μl test compound at 10 μM (final concentration) and 15 μl BACE1 enzyme from the kit (final concentration 3 nM) were preincubated for 15 minutes at room temperature before addition of 15 μl of substrate from the kit (250 nM final concentration) and incubated for additional 90 minutes at room temperature. The assay plate was subsequently read in a Pherastar (Ex540/Em590). The enzyme activity observed in presence of test compound were normalized to the enzyme activity observed in presence of buffer and 10 μM (final concentration) of the high affinity BACE1 reference inhibitor (S)-6-[3-Chloro-5-(5-prop-1-ynyl-pyridin-3-yl)-thiophen-2-yl] -2-imino-3,6-dimethyl-tetra-hydropyrimidin-4-one, respectively. The efficacy of the test compounds was evaluated at 10 μM (final concentration) and defined as the percent inhibition of the enzyme activity using the equation %inhibition=100% -normalized enzyme activity in percent.
Consider `NC1=N[C@@](c2cc(NC(=O)c3cnc(C(F)F)cn3)ccc2F)(C(F)F)C(F)(F)CC1` [Compound 6, (S)-N-(3-(6-amino-2-(difluoromethyl)-3,3-difluoro-2,3 ,4,5-tetrahydropyridin-2-yl)-4-fluorophenyl)-5-(difluoromethyl)pyrazine-2-carboxamide], for which the inhibition at 10 µM is 103%.

As for `COc1cnc(C(=O)Nc2ccc(F)c([C@@]3(C(F)F)N=C(N)CCC3(F)F)c2)nc1` [Compound 9, (S)-N-(3-(6-amino-2-(difluoromethyl)-3,3-difluoro-2,3,4,5-tetrahydropyridin-2-yl)-4-fluorophenyl)-5-methoxypyrimidine-2-carboxamide], the inhibition at 10 µM is 103%.

Consider `COc1cnc(C(=O)Nc2ccc(F)c([C@@]3(C(F)F)N=C(N)CCC3(F)F)c2)c(C)n1` [Compound 10, (S)-N-(3-(6-amino-2-(difluoromethyl)-3,3-difluoro-2,3,4,5-tetrahydropyridin-2-yl)-4-fluorophenyl)-5-methoxy-3-methylpyrazine-2-carboxamide], for which the inhibition at 10 µM stood at 106%.

As for `Cc1csc(C(=O)Nc2ccc(F)c([C@@]3(C(F)F)N=C(N)CCC3(F)F)c2)n1` [Compound 8, (S)-N-(3-(6-amino-2-(difluoromethyl)-3,3-difluoro-2,3,4,5-tetrahydropyridin-2-yl)-4-fluoro-phenyl)-4-methylthiazole-2-carboxamide], the inhibition at 10 µM came to 102%.

Regarding `NC1=N[C@@](c2cc(NC(=O)c3ccc(F)cn3)ccc2F)(C(F)F)C(F)(F)CC1` [Compound 2, (S)-N-(3-(6-amino-2-(difluoromethyl)-3,3-difluoro-2,3,4,5-tetrahydropyridin-2-yl)-4-fluorophenyl)-5-fluoropicolinamide], the inhibition at 10 µM came to 100%.

For `Cc1nc(C(=O)Nc2ccc(F)c([C@@]3(C(F)F)N=C(N)CCC3(F)F)c2)co1` [Compound 4, (S)-N-(3-(6-amino-2-(difluoromethyl)-3,3-difluoro-2,3,4,5-tetrahydropyridin-2-yl)-4-fluorophenyl)-2-methyloxazole-4-carboxamide], the inhibition at 10 µM is 104%.

As for `[2H]C([2H])([2H])Oc1cnc(C(=O)Nc2ccc(F)c([C@@]3(C(F)F)N=C(N)CCC3(F)F)c2)cn1` [Compound 14, (S)-N-(3-(6-amino-2-(difluoromethyl)-3,3-difluoro-2,3,4,5-tetrahydropyridin-2-yl)-4-fluorophenyl)-5-(methoxy-d3)pyrazine-2-carboxamide], the inhibition at 10 µM came to 108%.

Regarding `COc1cnc(C(=O)Nc2ccc(F)c([C@@]3(C(F)F)N=C(N)CCC3(F)F)c2)cn1` [Compound 3], the inhibition at 10 µM was found to be 103%.

In the case of `COc1ccc(C(=O)Nc2ccc(F)c([C@@]3(C(F)F)N=C(N)CCC3(F)F)c2)nc1` [Compound 5, (S)-N-(3-(6-amino-2-(difluoromethyl)-3,3-difluoro-2,3,4,5-tetrahydropyridin-2-yl)-4-fluorophenyl)-5-methoxypicolinamide], the inhibition at 10 µM worked out at 101%.

With `NC1=N[C@@](c2cc(NC(=O)c3ccc(Cl)cn3)ccc2F)(C(F)F)C(F)(F)CC1` [Compound 1, (S)-N-(3-(6-amino-2-(difluoromethyl)-3,3-difluoro-2,3,4,5-tetrahydropyridin-2-yl)-4-fluorophenyl)-5-chloropicolinamide], the inhibition at 10 µM amounted to 106%.

On to `[2H]C([2H])([2H])Oc1ccc(C(=O)Nc2ccc(F)c([C@@]3(C(F)F)N=C(N)CCC3(F)F)c2)nc1` [Compound 13, (S)-N-(3-(6-amino-2-(difluoromethyl)-3,3-difluoro-2,3,4,5-tetrahydropyridin-2-yl)-4-fluorophenyl)-5-(methoxy-d3)picolinamide], for which the inhibition at 10 µM was 103%.
